Among the test systems are SN12C; MCF7; OVCAR-8; OVCAR-5; MDA-N; T47D; HCT-116; NCI-H23; SR; RPMI-8226; M14; OVCAR-4; UO-31; U-251; SF-295; 786-0; CCRF-CEM; NCI-H226; IGROV-1; UACC-257.
Common to all, as to experiment: NCI anticancer screen, dose series, 48 h

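In this assay, cells in 96-well plates receive the compound at five concentrations for 48 hours. Endpoints are linearly interpolated between the surrounding concentrations. GI50 = concentration required for 50% inhibition of growth.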 Calls of active or inactive are those of the source. Cut-off read from the data, not from the text of the source: active = GI50 up to about 1.1 µM and inactive = higher.

As to `CCOC1=NC(O)c2cccn2-c2sccc21` (stereo not drawn), the GI50 with SN12C, with MCF7, in the assay with OVCAR-8, in the assay with OVCAR-5, in the assay on MDA-N and in the assay on T47D was > 100 µM (inactive) throughout. The GI50 in the assay on HCT-116 was > 100 µM (inactive); with NCI-H23, > 100 µM (inactive); with SR it was 34.2 µM (inactive); with RPMI-8226, 26.7 µM (inactive); in the assay on M14, > 100 µM (inactive); in the assay with OVCAR-4 it was > 100 µM (inactive). Further, the GI50 in the assay with UO-31, in the assay on U-251, with SF-295 and in the assay on 786-0 was > 100 µM (inactive) each time.
Turning to `C#CC(C)(C)OC(=O)C(=[N+]=[N-])C(C)=O`, the GI50 in the assay on SN12C, with MCF7, with OVCAR-8, in the assay on CCRF-CEM, with OVCAR-5 and with MDA-N was > 10 µM (inactive) in each case. Besides, the GI50 in the assay with T47D, with HCT-116, in the assay on NCI-H23, in the assay with SR, in the assay with RPMI-8226 and with NCI-H226 was > 10 µM (inactive) each time. The GI50 in the assay with M14, with IGROV-1, in the assay on UO-31, in the assay on U-251, in the assay with SF-295 and in the assay on 786-0 was > 10 µM (inactive) each time. In addition, the GI50 in the assay with UACC-257 was > 10 µM (inactive).
`O=C(O)CCC(O)=C1S(=O)(=O)OCCOS1(=O)=O`: the GI50 in the assay with SN12C, with MCF7, with OVCAR-8, in the assay on OVCAR-5, in the assay on MDA-N and in the assay with T47D was > 100 µM (inactive) each time. The GI50 was > 100 µM (inactive) with HCT-116; > 100 µM (inactive) with NCI-H23; 43.7 µM (inactive) with SR; > 100 µM (inactive) with RPMI-8226; > 100 µM (inactive) in the assay on NCI-H226; > 100 µM (inactive) in the assay with M14. The GI50 with OVCAR-4, with IGROV-1, in the assay on UO-31, with U-251, in the assay with SF-295 and in the assay with 786-0 was > 100 µM (inactive) each time. Also, the GI50 in the assay on UACC-257 was > 100 µM (inactive).
Regarding `CCOC(=O)C1=c2[nH]c3cccc4cccc(c43)n2C=C(C(C)=O)C1CC(C)=O` (stereo not drawn), the GI50 is > 100 µM (inactive) in the assay on SN12C; 94.2 µM (inactive) in the assay on MCF7; 46.2 µM (inactive) in the assay with OVCAR-8; 19.9 µM (inactive) with CCRF-CEM; > 100 µM (inactive) with OVCAR-5; > 100 µM (inactive) in the assay with MDA-N. Also, the GI50 was 34 µM (inactive) in the assay with T47D; 34.4 µM (inactive) in the assay on HCT-116; 69.7 µM (inactive) with NCI-H23; > 100 µM (inactive) in the assay on SR; > 100 µM (inactive) in the assay with RPMI-8226; > 100 µM (inactive) in the assay with M14. Besides, the GI50 in the assay with OVCAR-4 is > 100 µM (inactive); with IGROV-1 it was > 100 µM (inactive); in the assay with UO-31 it was 37.4 µM (inactive); in the assay on U-251 it was > 100 µM (inactive); in the assay on SF-295, > 100 µM (inactive); in the assay with 786-0 it was 40.4 µM (inactive). Also, the GI50 with UACC-257 is > 100 µM (inactive).
As to `COC(=O)c1c(O)ccc2c1c1c(n2Cc2ccccc2OC)C(=O)c2ccccc2C1`, the GI50 with SN12C was 22.8 µM (inactive); in the assay on MCF7, 23.7 µM (inactive); in the assay on OVCAR-8 it was 91.2 µM (inactive); in the assay on CCRF-CEM, 24.6 µM (inactive); with MDA-N it was 77.1 µM (inactive); with T47D it was 81.3 µM (inactive). The GI50 in the assay with HCT-116 is 27.8 µM (inactive); in the assay with NCI-H23, 74.8 µM (inactive); with SR it was 77.3 µM (inactive); with RPMI-8226, 22.4 µM (inactive); with NCI-H226, 70.3 µM (inactive); in the assay on M14, 46.2 µM (inactive). In addition, the GI50 in the assay with OVCAR-4 was 29.7 µM (inactive); in the assay with IGROV-1 it was 63.1 µM (inactive); with UO-31, 44.5 µM (inactive); with U-251, 63.4 µM (inactive); in the assay on 786-0 it was 78.9 µM (inactive); in the assay with UACC-257 it was 34.7 µM (inactive).
`Cc1cnc(-c2c[nH]c3ccccc23)nc1-c1c[nH]c2ccccc12`: the GI50 with SN12C is 1.68 µM (inactive); with MCF7, 3.05 µM (inactive); in the assay with OVCAR-8, 6.08 µM (inactive); in the assay on CCRF-CEM it was 1.52 µM (inactive); in the assay on OVCAR-5 it was 5.5 µM (inactive); in the assay on MDA-N it was 4.2 µM (inactive). Further, the GI50 was 1.75 µM (inactive) with T47D; 4.56 µM (inactive) in the assay with HCT-116; 11.3 µM (inactive) with SR; 3.9 µM (inactive) with RPMI-8226; 4.32 µM (inactive) in the assay on M14; 5.2 µM (inactive) in the assay on OVCAR-4. The GI50 is 1.14 µM (inactive) with IGROV-1; 6.97 µM (inactive) in the assay with UO-31; 6.46 µM (inactive) in the assay on U-251; 3.29 µM (inactive) in the assay on SF-295; 3.58 µM (inactive) in the assay on 786-0; 6.82 µM (inactive) in the assay on UACC-257.
As for `Cc1cc(-c2nc3cccc(F)c3s2)ccc1N`, the GI50 in the assay with SN12C is > 45.8 µM (inactive); with MCF7, 0.0132 µM (active); in the assay with OVCAR-8, > 80.9 µM (inactive); in the assay with CCRF-CEM, 8.04 µM (inactive); in the assay on MDA-N it was > 60.3 µM (inactive); with T47D, 0.033 µM (active). Moreover, the GI50 with HCT-116 was > 52.7 µM (inactive); in the assay on SR, 2.52 µM (inactive); in the assay on RPMI-8226, > 52.6 µM (inactive); in the assay on NCI-H226, 22.1 µM (inactive); with M14, > 68.2 µM (inactive); with OVCAR-4, > 27.2 µM (inactive). Further, the GI50 in the assay with IGROV-1 is 1.93 µM (inactive); with UO-31, > 45 µM (inactive); in the assay with U-251, > 68.2 µM (inactive); with SF-295, > 65 µM (inactive); in the assay on 786-0 it was > 56.2 µM (inactive); in the assay on UACC-257, > 68.1 µM (inactive).
For the molecule `O=P(c1ccccc1)(c1ccccc1)c1ccc2c(c1)OCCOCCOCCOCCO2`, the GI50 with SN12C, with MCF7, in the assay on OVCAR-8, with CCRF-CEM, with MDA-N and with T47D was > 100 µM (inactive) each time. Moreover, the GI50 in the assay on HCT-116, in the assay with NCI-H23, with SR, in the assay on RPMI-8226, in the assay on NCI-H226 and with M14 was > 100 µM (inactive) throughout. Moreover, the GI50 with IGROV-1, with UO-31, with SF-295 and in the assay with 786-0 was > 100 µM (inactive) in each case.
As to `O=C1CSC(c2cccc(Oc3ccccc3)c2)N1c1cc(Cl)ccc1Cl` (stereo not drawn), the GI50 is 19.5 µM (inactive) in the assay on SN12C; 6.3 µM (inactive) with MCF7; 23.7 µM (inactive) in the assay with OVCAR-8; 17.2 µM (inactive) in the assay with CCRF-CEM; 27.7 µM (inactive) in the assay on OVCAR-5; 17.6 µM (inactive) with MDA-N. Besides, the GI50 in the assay with T47D is 21.7 µM (inactive); in the assay with HCT-116, 17.3 µM (inactive); with NCI-H23 it was 31.9 µM (inactive); in the assay on SR, 14.9 µM (inactive); in the assay with NCI-H226, 23.4 µM (inactive); in the assay on M14 it was 22.2 µM (inactive). The GI50 is 17.2 µM (inactive) with OVCAR-4; 23.3 µM (inactive) in the assay on UO-31; 18.4 µM (inactive) with U-251; 23 µM (inactive) with SF-295; 18.2 µM (inactive) with 786-0; 22.7 µM (inactive) in the assay on UACC-257.
With `O=[N+]([O-])c1ccc(-n2nc3ccc4c(no[n+]4[O-])c3n2)cc1`, the GI50 in the assay with SN12C was > 100 µM (inactive); in the assay on MCF7 it was 82 µM (inactive); in the assay with OVCAR-8 it was > 100 µM (inactive); in the assay on CCRF-CEM, > 100 µM (inactive); with OVCAR-5, > 100 µM (inactive); with MDA-N, > 100 µM (inactive). Besides, the GI50 in the assay with T47D, with HCT-116, with NCI-H23, with SR, with NCI-H226 and in the assay with M14 was > 100 µM (inactive) each time. For the same molecule, the GI50 in the assay with OVCAR-4 was > 100 µM (inactive); in the assay with IGROV-1, > 100 µM (inactive); with UO-31, 15.1 µM (inactive); in the assay on U-251, > 100 µM (inactive); with SF-295 it was > 100 µM (inactive); in the assay with 786-0, > 100 µM (inactive). For the same molecule, the GI50 in the assay with UACC-257 was > 100 µM (inactive).
As for `CCOC(=O)CCc1c(C)nc2c(C)c3c([nH]c4ccc(Cl)cc43)c(C)c2c1O`, the GI50 with MCF7 was 7 µM (inactive); in the assay on OVCAR-8 it was 23.5 µM (inactive); in the assay with CCRF-CEM, 7.91 µM (inactive); with OVCAR-5, 0.843 µM (active); with MDA-N it was 10.7 µM (inactive); in the assay on T47D it was 14.8 µM (inactive). Also, the GI50 in the assay with HCT-116 is 10.9 µM (inactive); in the assay on NCI-H23, 19.2 µM (inactive); in the assay with SR it was 6.55 µM (inactive); in the assay on NCI-H226, 17.1 µM (inactive); with M14, 4.94 µM (inactive); with OVCAR-4 it was 6.89 µM (inactive). For the same molecule, the GI50 is 10.2 µM (inactive) in the assay on IGROV-1; 16.1 µM (inactive) with UO-31; 11 µM (inactive) with U-251; 5.55 µM (inactive) in the assay with SF-295; 6.37 µM (inactive) in the assay on 786-0; 6 µM (inactive) with UACC-257.

The values are drawn from ChEMBL document CHEMBL1201862, “PubChem BioAssay data set” (2004).
